The test concerns cell cycle regulatory proteins (cyclin D1, cdk4, cdk6, p27KIP1, p21CIP1). Briefly: Immunoblot of cell cycle regulatory proteins in PC-3 cells. In kind it is cell-based, human. The text has this: The following antibodies were obtained from Cell Signaling Technology (Beverly, Mass., USA) unless otherwise stated: anti-p27^KIP1 (bd Pharmingen), anti-p21^CIP1 , ANTI-CYCLIN d1, ANTI-CYCLIN d3, ANTI-CDK4, ANTI-CDK6, ANTI-PHOSPHO rb (Ser807/811), anti-RB, anti-phospho Akt (Ser473), anti-phospho Akt (Thre308), anti-Akt, anti-phospho PDK1 (Ser241), anti-phospho PDK1 (Tyr373/376), anti-phospho GSK-3β, anti-phospho mTOR (Ser2448), anti-mTOR, anti-βIII tubulin (Promega).
To determine the effect of selenate on the phosphorylation of proteins involved in the PI3K/Akt signaling cascade, 5×10^5 PC-3 cells were allowed to attach for 10 hours. […] Cells were lysed in ELB (250 mM NaCl, 50 mM HEPES pH 7.0, 5 mM EDTA, 0.5 mM DTT, 0.2% TX100, 20 mM sodium fluoride, 2 mM sodium pervanadate, Complete Protease Inhibitor Cocktail (Roche)). Lysates were centrifuged for 15 minutes at 4° C. Protein concentration was determined using the BCA system (Sigma) and equal amounts of protein were loaded into each lane of a SDS-polyacrylamide gel. The proteins were transferred onto PVDF (Millipore) membranes and detected with anti-mouse or anti-rabbit secondary antibodies couples to horseradish peroxidase (HRP) and chemiluminescence using the SuperSignal West Dura (Pierce). Membranes were stripped using the Restore Western Blot Stripping Buffer (Pierce).
(In general: Immunoblotting shows a protein as a band on a membrane.)

On to `O=[Se](=O)(O)O` [sodium selenate], for which the “p27KIP1 total protein levels, inorganic versus organic selenium” value (0.5 mM, compared to control (0 hours), FIG. 3C) is “markedly boosted”. The “expression levels of cyclin D1” value (0.5 mM, from the 14 hour time period) is recorded as “dropped significantly”. For the setting “0.5 mM, out to 24 hours”, the cdk4 levels entry was “peaked at 6 hours and declined in time dependent manner to 24 hours”. Besides, for the setting “0.5 mM, peaking at 6 hours”, the p21CIP1 levels result was “marked increase”. Besides, where the note is “0.5 mM, time-dependent till 24 hours”, the p27KIP1 levels result is “increased”. For the same compound, for the setting “high dose (0.5 mM)”, the cdk6 levels result is “remained relatively unchanged”.
